Experiments:
Format in all cases: in vivo
Setaria (Seta) [1] = assay: Pre-emergence herbicidal action (Example B1); design: key: 1=total damage; 9=no action; Ratings of from 1 to 4 (especially from 1 to 3) indicate good to very good herbicidal action; conditions: 1000 g of active ingredient/ha, 4 weeks, scale of nine ratings
Method: (§1) Monocotyledonous and dicotyledonous test plants are sown in standard soil in pots. Immediately after sowing, the test compounds, in the form of an aqueous suspension (prepared from a wettable powder (Example F3, b) according to WO 97/34485) or in the form of an emulsion (prepared from an emulsifiable concentrate (Example F1, c) according to WO 97/34485), are applied by spraying in an optimum concentration (500 litres of water/ha). The test plants are then grown in a greenhouse under optimum conditions. After a test duration of 4 weeks, the test is evaluated in accordance with a scale of nine ratings (1=total damage, 9=no action). Ratings of from 1 to 4 (especially from 1 to 3) indicate good to very good herbicidal action. Test plants: Setaria (Seta), Panicum (Pani), Echinochloa (Ds) (Echino), Amaranthus (Amar), Chenopodium (Cheno), Stellaria (Stella), Veronica, Euphorbia (Eupho), Brachiaria (Brachi).

Euphorbia (Eupho) [2] = assay: Pre-emergence herbicidal action (Example B1); design: key: 1=total damage; 9=no action; Ratings of from 1 to 4 (especially from 1 to 3) indicate good to very good herbicidal action; conditions: 1000 g of active ingredient/ha, 4 weeks, scale of nine ratings
Method: as §1

Brachiaria (Brachi) = assay: Pre-emergence herbicidal action (Example B1); design: key: 1=total damage; 9=no action; Ratings of from 1 to 4 (especially from 1 to 3) indicate good to very good herbicidal action; conditions: 1000 g of active ingredient/ha, 4 weeks, scale of nine ratings
Method: as §1

[3] = system: Echinochloa (Ds) (Echino); assay: Pre-emergence herbicidal action (Example B1); design: key: 1=total damage; 9=no action; Ratings of from 1 to 4 (especially from 1 to 3) indicate good to very good herbicidal action; conditions: 1000 g of active ingredient/ha, 4 weeks, scale of nine ratings
Method: as §1

Amaranthus (Amar) [4] = assay: Pre-emergence herbicidal action (Example B1); design: key: 1=total damage; 9=no action; Ratings of from 1 to 4 (especially from 1 to 3) indicate good to very good herbicidal action; conditions: 1000 g of active ingredient/ha, 4 weeks, scale of nine ratings
Method: as §1

Panicum (Pani) [5] = assay: Pre-emergence herbicidal action (Example B1); design: key: 1=total damage; 9=no action; Ratings of from 1 to 4 (especially from 1 to 3) indicate good to very good herbicidal action; conditions: 1000 g of active ingredient/ha, 4 weeks, scale of nine ratings
Method: as §1

Setaria (Seta) [6] = assay: Post-emergence herbicidal action (Example B2); conditions: 1000 g of active ingredient/ha, evaluated after 2 to 3 weeks, scale 1-9
Method: as §1, with “pots. When the test plants are at the 2- to 3-leaf stage,” for “pots. Immediately after sowing,”, “grown on” for “grown”, “of 2 to 3” for “of 4”, “Euphorbia (Eupho).” for “Euphorbia (Eupho), Brachiaria (Brachi).”

Chenopodium (Cheno) [7] = assay: Post-emergence herbicidal action (Example B2); conditions: 1000 g of active ingredient/ha, evaluated after 2 to 3 weeks, scale 1-9
Method: as §1, with “pots. When the test plants are at the 2- to 3-leaf stage,” for “pots. Immediately after sowing,”, “grown on” for “grown”, “of 2 to 3” for “of 4”, “Euphorbia (Eupho).” for “Euphorbia (Eupho), Brachiaria (Brachi).”

[8] = system: Echinochloa (Ds) (Echino); assay: Post-emergence herbicidal action (Example B2); conditions: 1000 g of active ingredient/ha, evaluated after 2 to 3 weeks, scale 1-9
Method: as §1, with “pots. When the test plants are at the 2- to 3-leaf stage,” for “pots. Immediately after sowing,”, “grown on” for “grown”, “of 2 to 3” for “of 4”, “Euphorbia (Eupho).” for “Euphorbia (Eupho), Brachiaria (Brachi).”

Panicum (Pani) [9] = assay: Post-emergence herbicidal action (Example B2); conditions: 1000 g of active ingredient/ha, evaluated after 2 to 3 weeks, scale 1-9
Method: as §1, with “pots. When the test plants are at the 2- to 3-leaf stage,” for “pots. Immediately after sowing,”, “grown on” for “grown”, “of 2 to 3” for “of 4”, “Euphorbia (Eupho).” for “Euphorbia (Eupho), Brachiaria (Brachi).”

Euphorbia (Eupho) [10] = assay: Post-emergence herbicidal action (Example B2); design: key: 1=total damage; 9=no action; Ratings of from 1 to 4 (especially from 1 to 3) indicate good to very good herbicidal action; conditions: 1000 g of active ingredient/ha, evaluated after 2 to 3 weeks, scale 1-9
Method: as §1, with “pots. When the test plants are at the 2- to 3-leaf stage,” for “pots. Immediately after sowing,”, “grown on” for “grown”, “of 2 to 3” for “of 4”, “Euphorbia (Eupho).” for “Euphorbia (Eupho), Brachiaria (Brachi).”

Amaranthus (Amar) [11] = assay: Post-emergence herbicidal action (Example B2); design: key: 1=total damage; 9=no action; Ratings of from 1 to 4 (especially from 1 to 3) indicate good to very good herbicidal action; conditions: 1000 g of active ingredient/ha, evaluated after 2 to 3 weeks, scale 1-9
Method: as §1, with “pots. When the test plants are at the 2- to 3-leaf stage,” for “pots. Immediately after sowing,”, “grown on” for “grown”, “of 2 to 3” for “of 4”, “Euphorbia (Eupho).” for “Euphorbia (Eupho), Brachiaria (Brachi).”

Stellaria (Stella) [12] = assay: Pre-emergence herbicidal action (Example B1); design: key: 1=total damage; 9=no action; Ratings of from 1 to 4 (especially from 1 to 3) indicate good to very good herbicidal action; conditions: 1000 g of active ingredient/ha, 4 weeks, scale of nine ratings
Method: as §1

Stellaria (Stella) [13] = assay: Post-emergence herbicidal action (Example B2); conditions: 1000 g of active ingredient/ha, evaluated after 2 to 3 weeks, scale 1-9
Method: as §1, with “pots. When the test plants are at the 2- to 3-leaf stage,” for “pots. Immediately after sowing,”, “grown on” for “grown”, “of 2 to 3” for “of 4”, “Euphorbia (Eupho).” for “Euphorbia (Eupho), Brachiaria (Brachi).”

Veronica [14] = assay: Post-emergence herbicidal action (Example B2); conditions: 1000 g of active ingredient/ha, evaluated after 2 to 3 weeks, scale 1-9
Method: as §1, with “pots. When the test plants are at the 2- to 3-leaf stage,” for “pots. Immediately after sowing,”, “grown on” for “grown”, “of 2 to 3” for “of 4”, “Euphorbia (Eupho).” for “Euphorbia (Eupho), Brachiaria (Brachi).”

Veronica [15] = assay: Pre-emergence herbicidal action (Example B1); conditions: 1000 g of active ingredient/ha, 4 weeks, scale of nine ratings
Method: as §1

Chenopodium (Cheno) [16] = assay: Pre-emergence herbicidal action (Example B1); design: key: 1=total damage; 9=no action; Ratings of from 1 to 4 (especially from 1 to 3) indicate good to very good herbicidal action; conditions: 1000 g of active ingredient/ha, 4 weeks, scale of nine ratings
Method: as §1

| SMILES | Herbicidal rating Seta (Setaria (Seta) [1]) | Herbicidal rating Eupho (Euphorbia (Eupho) [2]) | Herbicidal rating Brachi (Brachiaria (Brachi)) | Herbicidal rating Echino (Ds) [3] | Herbicidal rating Amar (Amaranthus (Amar) [4]) | Herbicidal rating Pani (Panicum (Pani) [5]) | Post-emergence herbicidal action rating, Seta (Setaria (Seta) [6]) | Post-emergence herbicidal action rating, Cheno (Chenopodium (Cheno) [7]) | Post-emergence herbicidal action rating, Echino (Ds) [8] | Post-emergence herbicidal action rating, Pani (Panicum (Pani) [9]) | Post-emergence herbicidal action rating, Eupho (Euphorbia (Eupho) [10]) | Post-emergence herbicidal action rating, Amar (Amaranthus (Amar) [11]) | Herbicidal rating Stella (Stellaria (Stella) [12]) | Post-emergence herbicidal action rating, Stella (Stellaria (Stella) [13]) | Post-emergence herbicidal action rating, Veronica (Veronica [14]) | Herbicidal rating Veronica (Veronica [15]) | Herbicidal rating Cheno (Chenopodium (Cheno) [16]) |
| --- | --- | --- | --- | --- | --- | --- | --- | --- | --- | --- | --- | --- | --- | --- | --- | --- | --- |
| COc1cc(Cl)cnc1OCC#Cc1cccc(OCC#N)n1 [1.063, 2-[3-(6-cyanomethoxy-pyrid-2-yl)-prop-2-ynyloxy]-5-chloro-3-methoxypyridine] | 2 | 1 | 1 | 4 | 1 | 1 | 5 | 2 | 3 | 3 | 1 | 2 |  |  |  |  |  |
| COc1cc(Cl)cnc1OCC#Cc1ccc(Cl)nc1 [2.006, 5-chloro-2-[3-(6-chloro-pyrid-3-yl)-prop-2-ynyloxy]-3-methoxy-pyridine] | 1 | 1 | 1 | 1 | 1 | 1 | 2 | 2 |  | 2 | 1 | 2 | 1 | 2 | 2 | 5 |  |
| COc1cc(F)cnc1OCC#Cc1ccc(Cl)nc1 [2.005, 2-[3-(6-chloro-pyrid-3-yl)-prop-2-ynyloxy]-5-fluoro-3-methoxy-pyridine] | 4 | 5 | 1 | 1 |  | 4 | 3 | 3 |  | 4 | 1 | 1 | 1 | 2 | 2 | 4 | 1 |
